Results published in article PMC5465288, “[^68Ga]/[^188Re] Complexed [CDTMP] Trans-1,2-Cyclohexyldinitrilotetraphosphonic Acid As a Theranostic Agent for Skeletal Metastases” (Frontiers in Medicine, 2017).

Test: HAp (hydroxyapatite) binding study
Conditions: 20 mg synthetic HAp in 1 mL saline, 10 min incubation at ambient temperature
Description: To evaluate HAp binding, 20 mg of synthetic HAp was allowed to incubate in 1 mL of isotonic saline for 24 h. Labeled complex in a volume of 50 µL was then added, subjected to vortex for 10 s and incubated at ambient temperature for 10 min. After incubation, samples had been centrifuged, and the supernatant was removed. Hap fraction was washed twice with 0.5 mL saline, and all the washes were collected. Radioactivity was then checked in combined liquids and HAp fraction using gamma counter.

[^68Ga]-trans-1,2-cyclohexyldinitrilo tetramethylene phosphonic acid [[^68Ga]-CDTMP]
binding to HAp: 89 ± 3%
